Laboratory results taken from ChEMBL document CHEMBL1201862, “PubChem BioAssay data set” (2004).
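Cultured in 96-well plates, cells were exposed to test compound for 48 hours across five concentrations. At the GI50, growth is halved.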 Calls of active or inactive are those of the source. No stated cut-off is given here; in the data, active = GI50 up to about 1.1 µM and inactive = higher.

Key:
Assay in all cases: NCI-60 cell line screen, 48 h
[1] = system: COLO 205
[2] = system: MDA-N
[3] = system: 786-0
[4] = system: HCT-15
[5] = system: HOP-92
[6] = system: SF-539
[7] = system: MDA-MB-231
[8] = system: SR
[9] = system: TK-10
[10] = system: OVCAR-4
[11] = system: HCT-116
[12] = system: SF-268
[13] = system: HL-60
[14] = system: NCI/ADR-RES
[15] = system: SK-MEL-28
[16] = system: EKVX
[17] = system: MCF7
[18] = system: MDA-MB-435
[19] = system: CAKI-1
[20] = system: NCI-H460

| SMILES | GI50 [1] | GI50 [2] | GI50 [3] | GI50 [4] | GI50 [5] | GI50 [6] | GI50 [7] | GI50 [8] | GI50 [9] | GI50 [10] | GI50 [11] | GI50 [12] | GI50 [13] | GI50 [14] | GI50 [15] | GI50 [16] | GI50 [17] | GI50 [18] | GI50 [19] | GI50 [20] |
| --- | --- | --- | --- | --- | --- | --- | --- | --- | --- | --- | --- | --- | --- | --- | --- | --- | --- | --- | --- | --- |
| N#C/C=C1\C=CC(O)C(O)C1OC1OC(CO)C(O)C(O)C1O (stereo not drawn) | > 100 µM (inactive) | > 100 µM (inactive) | > 100 µM (inactive) | > 100 µM | > 100 µM (inactive) | > 100 µM (inactive) | > 100 µM (inactive) | > 10 µM (inactive) | > 100 µM (inactive) | > 100 µM (inactive) | > 100 µM (inactive) | > 100 µM (inactive) | > 100 µM (inactive) | > 100 µM (inactive) | > 100 µM (inactive) | > 100 µM (inactive) | > 100 µM (inactive) | > 100 µM (inactive) | > 100 µM (inactive) | > 100 µM (inactive) |
| COc1cc2c(=O)cnoc2cc1O | > 100 µM (inactive) | > 100 µM (inactive) | > 100 µM (inactive) | > 100 µM | > 100 µM (inactive) | > 100 µM (inactive) | > 100 µM (inactive) | > 100 µM (inactive) | > 100 µM (inactive) | > 100 µM (inactive) |  | > 100 µM (inactive) | > 100 µM (inactive) | > 100 µM (inactive) | > 100 µM (inactive) | > 100 µM (inactive) | > 100 µM (inactive) | > 100 µM (inactive) | > 100 µM (inactive) | > 100 µM (inactive) |
| C#CC1=CC(=O)C(OC)=CC1=O | 27 µM (inactive) | 19.1 µM (inactive) | 3.01 µM (inactive) | 16.4 µM | 15.6 µM (inactive) | 42.7 µM (inactive) | 16.4 µM (inactive) | 6.7 µM (inactive) | 48.6 µM (inactive) |  | 13.3 µM (inactive) | 43.4 µM (inactive) | 2.44 µM (inactive) | 32.9 µM (inactive) | 37.2 µM (inactive) | 23.3 µM (inactive) | 14.8 µM (inactive) | 18.1 µM (inactive) | 18.6 µM (inactive) | 34.5 µM (inactive) |
| COC(=O)/C=C(\C)C(=O)N(C)c1ccccc1I | > 100 µM (inactive) | > 100 µM (inactive) | > 100 µM (inactive) | > 100 µM | > 100 µM (inactive) |  | > 100 µM (inactive) | 94 µM (inactive) |  | > 100 µM (inactive) | > 100 µM (inactive) | > 100 µM (inactive) |  | > 100 µM (inactive) | > 100 µM (inactive) | > 100 µM (inactive) | > 100 µM (inactive) | > 100 µM (inactive) | 72.1 µM (inactive) | > 100 µM (inactive) |
| COc1ccc(N2C(=O)/C(=C\c3cc(OC)c(OC)c(OC)c3)S(=O)(=O)C2c2ccccc2)cc1 (stereo not drawn) | 4.39 µM (inactive) | 13.9 µM (inactive) | 43.5 µM (inactive) | 27.7 µM | 41.7 µM (inactive) | 37.9 µM (inactive) | 34.8 µM (inactive) | 11 µM (inactive) | > 100 µM (inactive) | 42 µM (inactive) | 18.8 µM (inactive) | 52 µM (inactive) |  | 17.2 µM (inactive) | 50.7 µM (inactive) |  | 30.2 µM (inactive) | 21.8 µM (inactive) | 84.7 µM (inactive) | 47.6 µM (inactive) |
| O/N=C/C1c2ccccc2-c2ccccc21 | 16.6 µM (inactive) | 14.2 µM (inactive) | 3.7 µM (inactive) | 19.5 µM | 12.8 µM (inactive) | 16.2 µM (inactive) | 14.6 µM (inactive) | 23.2 µM (inactive) | 18.9 µM (inactive) |  | 16.3 µM (inactive) | 15.3 µM (inactive) | 31.3 µM (inactive) | 16.8 µM (inactive) | 15.7 µM (inactive) | 13.6 µM (inactive) | 16 µM (inactive) | 15.8 µM (inactive) | 14 µM (inactive) | 17.3 µM (inactive) |
| CC(C)(C)OC(=O)C1CC[C@@H](CC(=O)Oc2ccc([N+](=O)[O-])cc2)N1 (stereo partly drawn) | > 100 µM (inactive) | > 100 µM (inactive) | > 100 µM (inactive) | > 100 µM | > 100 µM (inactive) | > 100 µM (inactive) | > 100 µM (inactive) | 59 µM (inactive) | > 100 µM (inactive) | > 100 µM (inactive) | > 100 µM (inactive) |  | > 100 µM (inactive) | > 100 µM (inactive) | > 100 µM (inactive) | > 100 µM (inactive) | > 100 µM (inactive) | > 100 µM (inactive) | > 100 µM (inactive) | > 100 µM (inactive) |
| O=C(NCCCl)NCc1ccccc1 | > 100 µM (inactive) | > 100 µM (inactive) | > 100 µM (inactive) | > 100 µM | > 100 µM (inactive) |  | > 100 µM (inactive) | > 100 µM (inactive) |  | > 100 µM (inactive) | > 100 µM (inactive) | > 100 µM (inactive) | > 100 µM (inactive) | > 100 µM (inactive) | > 100 µM (inactive) | > 100 µM (inactive) | > 100 µM (inactive) | > 100 µM (inactive) | > 100 µM (inactive) | 52.5 µM (inactive) |
| O=C(NNC(=O)c1ccccc1O)c1cccc(Br)c1 | 38.7 µM (inactive) | > 57.5 µM (inactive) | 44.9 µM (inactive) | 6.85 µM |  | > 70 µM (inactive) | 18.2 µM (inactive) | 12.9 µM (inactive) | > 100 µM (inactive) | 45.5 µM (inactive) | 24.1 µM (inactive) | 24.9 µM (inactive) | 5.82 µM (inactive) | 21.1 µM (inactive) | > 91.8 µM (inactive) | 23.6 µM (inactive) | 6.71 µM (inactive) | 37.9 µM (inactive) | 24.3 µM (inactive) | 8.43 µM (inactive) |
| CCSc1cc2c(cc1O)CC[C@@H]1[C@@H]2CC[C@]2(C)[C@@H](O)CC[C@@H]12 | 18.3 µM (inactive) | 2.67 µM (inactive) | 12.2 µM (inactive) | 5.68 µM | 8.77 µM (inactive) | 15.8 µM (inactive) | 4.94 µM (inactive) | 4.88 µM (inactive) | 27.1 µM (inactive) | 18.3 µM (inactive) | 8.57 µM (inactive) | 29 µM (inactive) | 4.54 µM (inactive) | 5.18 µM (inactive) | 14.2 µM (inactive) |  | 10.3 µM (inactive) | 1.98 µM (inactive) | 12.6 µM (inactive) | 6.68 µM (inactive) |
| CC(=O)O[C@H]1C(=O)[C@@]2(C)[C@H]([C@H](OC(=O)c3ccccc3)[C@]3(O)C[C@H](OC(=O)[C@H](OC(=O)OCCC(O)CO)[C@@H](NC(=O)c4ccccc4)c4ccccc4)C(C)=C1C3(C)C)[C@]1(OC(C)=O)CO[C@@H]1C[C@@H]2O (stereo partly drawn) | < 0.01 µM (active) | < 0.01 µM (active) | 0.0105 µM (active) | 0.303 µM | 12.8 µM (inactive) | < 0.01 µM (active) | < 0.0135 µM (active) | < 0.01 µM (active) | 0.998 µM (active) | 17.4 µM (inactive) | < 0.01 µM (active) | < 0.0111 µM (active) | < 0.01 µM (active) | 3.56 µM (inactive) |  | 0.037 µM (active) | < 0.01 µM (active) | < 0.01 µM (active) | 0.631 µM (active) | < 0.01 µM (active) |
| c1ccc2c(c1)CC1COc3ccccc3C1O2 (stereo not drawn) | > 100 µM (inactive) | 38 µM (inactive) | 50.7 µM (inactive) | 40.2 µM | 47 µM (inactive) | > 100 µM (inactive) | 47.4 µM (inactive) | 88.1 µM (inactive) | 95.5 µM (inactive) |  | 45.8 µM (inactive) | > 100 µM (inactive) | > 100 µM (inactive) | 47.8 µM (inactive) |  | 48.3 µM (inactive) | 45.2 µM (inactive) | 47.4 µM (inactive) | 71.3 µM (inactive) |  |
| COc1ccc(C2C3=C(COC3=O)Oc3cc4c(cc32)OCO4)c(OC)c1 (stereo not drawn) | 7 µM (inactive) | 2.09 µM (inactive) | 21.7 µM (inactive) | 5.73 µM |  | 12.6 µM (inactive) | 9.04 µM (inactive) | 4.99 µM (inactive) | 62.1 µM (inactive) | 8.11 µM (inactive) | 6.24 µM (inactive) | 34 µM (inactive) | 4.34 µM (inactive) | 10 µM (inactive) | 23 µM (inactive) | 48.5 µM (inactive) | 6.89 µM (inactive) | 2.28 µM (inactive) | 18.6 µM (inactive) | 17.4 µM (inactive) |
| CC(=O)NC(Cc1c[nH]cn1)C(=O)N1CCCC1C(N)=O (stereo not drawn) | > 100 µM (inactive) | > 100 µM (inactive) | > 100 µM (inactive) | > 100 µM | > 100 µM (inactive) |  | > 100 µM (inactive) | > 100 µM (inactive) | > 100 µM (inactive) | > 100 µM (inactive) | > 100 µM (inactive) | > 100 µM (inactive) | > 100 µM (inactive) | > 100 µM (inactive) | > 100 µM (inactive) | > 100 µM (inactive) | > 100 µM (inactive) | > 100 µM (inactive) | > 100 µM (inactive) | > 100 µM (inactive) |
| N#CC(=S)Nc1ccc(Cl)c(Cl)c1 | 20.6 µM (inactive) | 32.7 µM (inactive) | 35.7 µM (inactive) | 27.2 µM | 3.1 µM (inactive) | 20.7 µM (inactive) | 26.7 µM (inactive) | 21.7 µM (inactive) | 26.5 µM (inactive) |  | 28.8 µM (inactive) | 37.4 µM (inactive) |  | 26.3 µM (inactive) | 30.3 µM (inactive) | 22.9 µM (inactive) | 35.5 µM (inactive) | 27 µM (inactive) | 29.8 µM (inactive) |  |
